Source: patent US11484529B2, “Desmethylanethole trithione derivatives for the treatment of diseases linked to mitochondrial reactive oxygen species (ROS) production” (OP2 Drugs, priority 2017, dated 2022)

How the values were obtained:
[1] = tested on: NAD(P)H oxidase; assay: Non-mitochondrial ROS/H2O2 production by NAD(P)H oxidase (Amplex Red); type: biochemical; conditions: no mitochondria; for effect on ROS measurement with NAD(P)H oxidase: 10 to 100 μM; for averaged percentage of ROS production across all concentrations tested: NAD(P)H oxidase, FIG. 22A
Experimental: Rates of ROS/H2O2 production from heart mitochondria were assessed through the oxidation of the colorless, non-fluorescent indicator Amplex Red in the presence of exogenous horseradish peroxidase (HRP, EC 1.11.1.7, Sigma). H2O2 reacts with Amplex Red in a 1:1 stoichiometry, yielding the fluorescent compound resorufin (excitation: 560 nm; emission: 585 nm) which is stable once formed. Fluorescence was measured continuously with a spectro-fluorometer equipped with temperature control and stirring (SAFAS Xenius, Monaco). Isolated mitochondria (0.1 mg/mL) were incubated in the same experimental buffer than previously, supplemented with 15 μM Amplex Red and 10 μg/mL HRP. Glutamate (5 mM)/malate (2.5 mM) together with succinate (5 mM) were used as complex I and complex II substrates, respectively. Experiments were conducted under non-phosphorylating conditions in the presence of 15 μM atractyloside, i.e., under state IV conditions where […]. Afterwards, rotenone (1.5 μM), antimycin A (2 μM), and myxothiazol (0.2 μM) were sequentially added to inhibit the redox centers within the electron transfer chain (FIG. 2), namely sites IQ, IF (with rotenone), IIIQi (with antimycin A) and IIIQO (with myxothiazol). Assay was finally calibrated with known amounts of H2O2 (steps of 300 nM), in the presence of all relevant compounds, including AOL. The control test of the absence of effect of AOL on the Amplex Red assay itself and NAD(P)H oxidase ROS/H2O2 production was carried out in the absence of cardiac mitochondria and the presence of NAD(P)H oxidase (EC 1.6.3.3, 5 mU/mL, Sigma) and NADH (100 μM) solutions.
The specificity of AOL was further tested in vitro using the peroxidase-Amplex Red system utilized for the measurement of ROS/H2O2 by mitochondria, which in fact measures the appearance of H2O2 by the oxidation of Amplex Red to the fluorescent resorufin (see FIG. 4). In the absence of mitochondria and by adding instead a H2O2-producing system to the measuring system, it was possible to test the effect of AOL on this system. This has been carried out by using commercial NAD(P)H oxidase which produces H2O2 in the presence of added NAD(P)H and measuring the reduction of Amplex Red to resorufin (FIG. 4).
Isolated mitochondria (0.1 mg/mL) were incubated in the same experimental buffer than previously, supplemented with 15 μM Amplex Red and 10 μg/mL HRP. Glutamate (5 mM)/malate (2.5 mM) together with succinate (5 mM) were used as complex I and complex II substrates, respectively. Experiments were conducted under non-phosphorylating conditions in the presence of 15 μM atractyloside. Afterwards, rotenone (1.5 μM), antimycin A (2 μM), and myxothiazol (0.2 μM) were sequentially added to inhibit the redox centers within the electron transfer chain (see FIG. 2), namely sites IQ, IF (with rotenone), IIIQi (with antimycin A) and IIIQO (with myxothiazol). Assay was finally calibrated with known amounts of H2O2 (steps of 300 nM), in the presence of all relevant compounds, including AOX. The control test of the absence of effect of AOL, AOX and Oltipraz on the Amplex Red assay itself and NAD(P)H oxidase […] production was carried out in the absence of cardiac mitochondria and the presence of NAD(P)H oxidase (EC 1.6.3.3, 5 mU/mL, Sigma) and NADH (100 μM) solutions.
The mechanism of action of AOX was further tested in vitro using the peroxidase-Amplex Red system utilized for the measurement of ROS/H2O2 by mitochondria, which in fact measures the appearance of H2O2 by the oxidation of Amplex Red to the fluorescent resorufin (FIG. 22). In the absence of mitochondria and by adding instead a H2O2-producing system to the assay, it was possible to test the effect of AOX on this non-mitochondrial superoxide/H2O2 production. This has been carried out by using commercial NAD(P)H oxidase which produces H2O2 in the presence of added NAD(P)H and measuring the reduction of Amplex Red to resorufin. […]

[2] = tested on: H460 cells; assay: Oxygen consumption of resting carcinoma cells (oxygraphy); type: cell-based, human; conditions: 0 to 40 μM
Experimental: Human non-small cell carcinoma cell line H460 and A549 were obtained from ATCC. Cells were cultured in growth medium consisting of DMEM (GIBCO), 10% FBS (GIBCO) and 100 units of penicillin and 100 μg/mL streptomycin (GIBCO). The cells were maintained in either 75-cm^2 T-flasks or 175-cm^2 T-flasks (BD Biosciences) in an incubator (model 3100 series, Forma Scientific, Marietta, Ohio) controlled at 37° C., 95% humidity, and 5% CO2. Cell culture medium was refreshed every other day. Every 2 to 3 days, H460 and A549 cultures were detached from the flasks using a 0.25% trypsin solution (Gibco) and subcultured. All cultures were maintained at 80-90% confluence at the time of subculture.
The effects of AOX (0 to 40 μM) were assessed on carcinoma cells using the classical oxygraphic approach and compared to the effects of sister molecule AOL.
Oxygen consumption of H460 resting cells has been measured continuously and increasing concentrations of AOL and AOX (0 to 40 μM) have been injected to the preparation (FIG. 24).

[3] = tested on: pulmonary arterial smooth muscle cells (PASMC); assay: PASMC proliferation (BrdU incorporation); type: cell-based; conditions: AOL 10, 20, 60 or 100 μM, 24 hours
Experimental: Detection of pulmonary arterial smooth muscle cells (PASMC) proliferation was assayed by using a colorimetric immunoassay kit (Roche Applied Science, Indianapolis, Ind., USA) based on the measurement of 5-bromo-2′-deoxy-uridine (BrdU) incorporation during DNA synthesis.
Isolated PASMC were seeded in culture medium supplemented with 10% fetal calf serum (FCS) at a density of 5·10^3 cells/well/100 μL in a 96-well culture plate. The culture plate was placed in a humidified incubator at 37° C. under 5% CO2 in air. After 48 hours, cells were subjected to 48 hours of growth arrest in serum-free culture medium supplemented with 1% insulin-transferrin-selenium. At the end of this period, PASMC were incubated for 24 hours in culture medium containing either: • 0.2% FCS (control condition); • 0.2% FCS+10, 20, 60 or 100 μM AOL; • 0.2% FCS+100 μM 5HT (serotonin); • 0.2% FCS+100 μM 5HT+10, 20, 60 or 100 μM AOL; • 10% FCS; • 10% FCS+10, 20, 60 or 100 μM AOL.
Each condition was tested in triplicate. 10 μL of BrdU (100 μM) was then added to the media and cells were incubated for an additional 2 hours at 37° C. […] Newly synthesized BrdU DNA was determined by measuring absorbance of the samples in an ELISA reader (Spectrostar/nano; BMG Labtech, Champigny-sur-Marne, France) at a wavelength of 380 nm with a reference wavelength of 490 nm.

[4] = cited from earlier work

Compound | effect on ROS measurement with NAD(P)H oxidase [1] | averaged percentage of ROS production across all concentrations tested [1] [%] | inhibition of fluorescence in NAD(P)H oxidase/Amplex Red system ([1]; results not shown) | rate of oxygen consumption by H460 cells [2] | PASMC proliferation in presence of 0.2% FCS and 100 μM 5HT [3] | PASMC proliferation induced by 10% FCS [3] | bioavailability [4]
COc1ccc(-c2cc(=S)ss2)cc1 [AOL, 5-(4-methoxyphenyl)-3H-1,2-dithiole-3-thione] | no global effect | 99.2 | did not observe any inhibition | no change in the rate of oxygen consumption | successfully inhibited the proliferation | successfully inhibited the proliferation | known to be very short
Oc1ccc(-c2cc(=S)ss2)cc1 [AOX, 5-(4-hydroxyphenyl)-3H-1,2-dithiole-3-thione] | no global effect | 109.9 |  | no change in the rate of oxygen consumption |  |  | 
